Test results taken from publication PMC9411704, “Assessment of the Carcinogenic Potential of Pretomanid in Transgenic Tg.rasH2 Mice” (International Journal of Toxicology, 2022).
Read-outs that look alike come from different tables or passages of the source.

Key:
[1] = test system: Salmonella typhimurium TA100; test: Bacterial reverse mutation (Ames) assay, plate incorporation; assay type: cell-based
Procedure: (§1) Pretomanid and metabolite M50 were evaluated over a range of concentrations, with and without an added metabolic activation system, in five tester strains: Salmonella typhimurium histidine auxotrophs TA98, TA100, TA1535, and TA1537 [9] and the Escherichia coli tryptophan auxotroph WP2uvrA. S. typhimurium strains were received from Dr. Bruce Ames, Department of Biochemistry, University of California (Berkeley, CA). The E. coli strain was received from The National Collection of Industrial Bacteria, Torrey Research Station, Aberdeen, Scotland (United Kingdom). The metabolic activation system was a liver homogenate (S9) mix. The S9 component was prepared from male Sprague-Dawley rats that had been injected (intraperitoneally) with Aroclor^TM 1254 at 500 mg/kg, 5 days before sacrifice. The S9 mix was prepared immediately before use and contained 10% S9, 5 mM glucose-6-phosphate, 4 mM β-nicotinamide adenine dinucleotide phosphate, 8 mM MgCl2 and 33 mM KCl in a 100 mM phosphate buffer at pH 7.4. Pretomanid was tested at 0.05 to 5000 μg/plate. Metabolite M50 was tested at 78 to 2500 μg/plate. A negative (solvent) control culture and appropriate positive control cultures were included in each assay.
(§2) Bacteria were exposed to test materials by the plate incorporation method originally described by Ames et al and updated by Maron and Ames. Bottom agar was Vogel-Bonner minimal medium E [12] with 1.5% (w/v) agar, and the top Agar was 0.7% (w/v) agar and 0.5% (w/v) NaCl. After incubation, cultures were evaluated using a dissecting microscope for precipitation or cytotoxicity, and revertant colonies were counted. The mean numbers of revertant colonies in various cultures were compared to reach conclusions about assay validity and mutagenic potential. For the test article to be evaluated positive, it must cause a dose-related increase in the mean revertants per plate of at least one tester strain with a minimum of two increasing concentrations of test article.

[2] = test system: Salmonella typhimurium TA98; test: as above; assay type: cell-based
Procedure: as §1, §2

[3] = test system: Salmonella typhimurium TA1537; test: as above; assay type: cell-based
Procedure: as §1, §2

[4] = test system: Salmonella typhimurium TA1535; test: as above; assay type: cell-based
Procedure: as §1, §2

Escherichia coli WP2uvrA = test: as above
Procedure: as §1, §2

[5] = test system: Salmonella typhimurium TA98, TA100, TA1535, TA1537 and Escherichia coli WP2uvrA; test: Bacterial reverse mutation (Ames) assay, overall over five tester strains; assay type: cell-based; settings: up to 5000 μg/plate
Procedure: as §1, §2

[6] = Toxicokinetic assessment in wild-type CByB6F1 mice (Day 14); assay type: in vivo
Procedure: TK animals were included for the vehicle control (n = 4 sex) and pretomanid-treated groups (n = 10 sex/group). The TK cohort animals were dosed by oral gavage once daily for 14 consecutive days.
Toxicokinetic blood samples (300 μL for males and 250 μL for females) were collected in K3EDTA tubes after 14 doses from the TK cohort via retro-orbital bleeding under 70% CO2/30% O2 anesthesia. On Day 14, control mice were bled once 2 hours after dosing. On Day 14 and 15, Pretomanid-treated mice were bled predose, 0.5, 1, 3, 6, and 24 hours post dose. TK animals were euthanized after their final blood collection.
Collected blood was stored on wet ice until the samples were processed to plasma. Blood samples were centrifuged at 4±2°C and 8000 g for 5 minutes. Plasma was snap frozen in liquid nitrogen and stored in a deep freezer (≤−60°C) within 60 minutes of bleeding the TK animals.
Pretomanid and the M50 metabolite were quantified in mouse plasma by liquid chromatography-tandem mass spectrometry (LC-MS/MS) after protein precipitation. Aliquots of 25 µL of plasma were spiked with internal standards (PA-824-d5 or morphine) and proteins were precipitated in 1% formic acid in acetonitrile. A partial supernatant from each sample was transferred to a clean plate and diluted in acetonitrile/water (40:60) for pretomanid and deionized water for M50. Supernatant was analyzed for pretomanid or M50 using validated LC-MS/MS methods with a linear range of 20 to 10,000 ng/mL for pretomanid and 10 to 5,000 ng/mL for M50 (methods validated at Alliance Pharma, Malvern PA).
Sample collection time and plasma concentration data were analyzed to derive TK parameters by standard model independent methods based on the mean plasma concentration-time data for each dose group. The TK analyses of the plasma concentration profiles were performed using non-compartmental analysis in Phoenix WinNonlin Professional 7.0 (Certara, L.P., St. Louis, MO, USA). Concentration values below the lower limit of quantitation were treated as zeros for analysis purposes.

For `O=[N+]([O-])c1cn2c(n1)OC[C@@H](OCc1ccc(OC(F)(F)F)cc1)C2` [Pretomanid, (6S)-2-nitro-6-{[4-(trifluoromethoxy)benzyl]oxy}-6,7-dihydro-5H-imidazo[2,1-b][1,3]oxazine], the “Mean Number of Revertants/Plate” value ([1]; TA100 +S9, 100 μg/plate) was 137 Revertants/Plate, the “Mean Number of Revertants/Plate” value ([1]; TA100 +S9, 333 μg/plate) was 179 Revertants/Plate and the “Mean Number of Revertants/Plate” value ([1]; TA100 +S9, 1000 μg/plate) was 173 Revertants/Plate. The “Mean Number of Revertants/Plate” value ([1]; TA100 +S9, 3333 μg/plate) was 166 Revertants/Plate, the “Mean Number of Revertants/Plate” value ([1]; TA100 +S9, 5000 μg/plate) was 179 Revertants/Plate and the “Mean Number of Revertants/Plate” value ([1]; TA100 −S9, 100 μg/plate) was 119 Revertants/Plate. For the same compound, the “Mean Number of Revertants/Plate” value ([1]; TA100 −S9, 333 μg/plate) was 107 Revertants/Plate, the “Mean Number of Revertants/Plate” value ([1]; TA100 −S9, 1000 μg/plate) was 115 Revertants/Plate and the “Mean Number of Revertants/Plate” value ([1]; TA100 −S9, 3333 μg/plate) was 99 Revertants/Plate. For the same compound, the “Mean Number of Revertants/Plate” value ([1]; TA100 −S9, 5000 μg/plate) was 106 Revertants/Plate, the “Mean Number of Revertants/Plate” value ([2]; TA98 +S9, 100 μg/plate) was 22 Revertants/Plate and the “Mean Number of Revertants/Plate” value ([2]; TA98 +S9, 333 μg/plate) was 26 Revertants/Plate. For the same compound, the “Mean Number of Revertants/Plate” value ([2]; TA98 +S9, 1000 μg/plate) was 23 Revertants/Plate, the “Mean Number of Revertants/Plate” value ([2]; TA98 +S9, 3333 μg/plate) was 16 Revertants/Plate and the “Mean Number of Revertants/Plate” value ([2]; TA98 +S9, 5000 μg/plate) was 22 Revertants/Plate. For the same compound, the “Mean Number of Revertants/Plate” value ([2]; TA98 −S9, 100 μg/plate) was 25 Revertants/Plate, the “Mean Number of Revertants/Plate” value ([2]; TA98 −S9, 333 μg/plate) was 12 Revertants/Plate and the “Mean Number of Revertants/Plate” value ([2]; TA98 −S9, 1000 μg/plate) was 18 Revertants/Plate. For the same compound, the “Mean Number of Revertants/Plate” value ([2]; TA98 −S9, 3333 μg/plate) was 17 Revertants/Plate, the “Mean Number of Revertants/Plate” value ([2]; TA98 −S9, 5000 μg/plate) was 15 Revertants/Plate and the “Mean Number of Revertants/Plate” value ([3]; TA1537 +S9, 100 μg/plate) was 9 Revertants/Plate. The “Mean Number of Revertants/Plate” value ([3]; TA1537 +S9, 333 μg/plate) was 6 Revertants/Plate, the “Mean Number of Revertants/Plate” value ([3]; TA1537 +S9, 1000 μg/plate) was 5 Revertants/Plate and the “Mean Number of Revertants/Plate” value ([3]; TA1537 +S9, 3333 μg/plate) was 5 Revertants/Plate. The “Mean Number of Revertants/Plate” value ([3]; TA1537 +S9, 5000 μg/plate) was 4 Revertants/Plate, the “Mean Number of Revertants/Plate” value ([3]; TA1537 −S9, 100 μg/plate) was 5 Revertants/Plate and the “Mean Number of Revertants/Plate” value ([3]; TA1537 −S9, 333 μg/plate) was 5 Revertants/Plate. The “Mean Number of Revertants/Plate” value ([3]; TA1537 −S9, 1000 μg/plate) was 10 Revertants/Plate, the “Mean Number of Revertants/Plate” value ([3]; TA1537 −S9, 3333 μg/plate) was 5 Revertants/Plate and the “Mean Number of Revertants/Plate” value ([3]; TA1537 −S9, 5000 μg/plate) was 5 Revertants/Plate. For the same compound, the “Mean Number of Revertants/Plate” value ([4]; TA1535 +S9, 100 μg/plate) was 12 Revertants/Plate, the “Mean Number of Revertants/Plate” value ([4]; TA1535 +S9, 333 μg/plate) was 13 Revertants/Plate and the “Mean Number of Revertants/Plate” value ([4]; TA1535 +S9, 1000 μg/plate) was 10 Revertants/Plate. The “Mean Number of Revertants/Plate” value ([4]; TA1535 +S9, 3333 μg/plate) was 11 Revertants/Plate, the “Mean Number of Revertants/Plate” value ([4]; TA1535 +S9, 5000 μg/plate) was 14 Revertants/Plate and the “Mean Number of Revertants/Plate” value ([4]; TA1535 −S9, 100 μg/plate) was 9 Revertants/Plate. The “Mean Number of Revertants/Plate” value ([4]; TA1535 −S9, 333 μg/plate) was 10 Revertants/Plate, the “Mean Number of Revertants/Plate” value ([4]; TA1535 −S9, 1000 μg/plate) was 10 Revertants/Plate and the “Mean Number of Revertants/Plate” value ([4]; TA1535 −S9, 3333 μg/plate) was 8 Revertants/Plate. The “Mean Number of Revertants/Plate” value ([4]; TA1535 −S9, 5000 μg/plate) was 7 Revertants/Plate, the “Mean Number of Revertants/Plate” value (Escherichia coli WP2uvrA; WP2uvrA +S9, 100 μg/plate) was 16 Revertants/Plate and the “Mean Number of Revertants/Plate” value (Escherichia coli WP2uvrA; WP2uvrA +S9, 333 μg/plate) was 17 Revertants/Plate. The “Mean Number of Revertants/Plate” value (Escherichia coli WP2uvrA; WP2uvrA +S9, 1000 μg/plate) was 15 Revertants/Plate, the “Mean Number of Revertants/Plate” value (Escherichia coli WP2uvrA; WP2uvrA +S9, 3333 μg/plate) was 10 Revertants/Plate and the “Mean Number of Revertants/Plate” value (Escherichia coli WP2uvrA; WP2uvrA +S9, 5000 μg/plate) was 14 Revertants/Plate. For the same compound, the “Mean Number of Revertants/Plate” value (Escherichia coli WP2uvrA; WP2uvrA −S9, 100 μg/plate) was 23 Revertants/Plate, the “Mean Number of Revertants/Plate” value (Escherichia coli WP2uvrA; WP2uvrA −S9, 333 μg/plate) was 21 Revertants/Plate and the “Mean Number of Revertants/Plate” value (Escherichia coli WP2uvrA; WP2uvrA −S9, 1000 μg/plate) was 17 Revertants/Plate. For the same compound, the “Mean Number of Revertants/Plate” value (Escherichia coli WP2uvrA; WP2uvrA −S9, 3333 μg/plate) was 11 Revertants/Plate, the “Mean Number of Revertants/Plate” value (Escherichia coli WP2uvrA; WP2uvrA −S9, 5000 μg/plate) was 16 Revertants/Plate and the “Change in number of revertant colonies” value ([5]; any tester strain under any conditions) was “did not cause a significant increase”. For the same compound, the “Cytotoxicity in the Ames assay” value [5] was “no appreciable cytotoxicity”, the Mutagenic potential ([5]; with and without S9) was “negative” and the AUC(0-t) ([6]; CByB6F1 (wild-type), mouse, female, pretomanid 10 mg/kg/day oral, Day 14, plasma, read-out: Pretomanid AUC0-24) was 24900 ng·h/mL. It also gave a Cmax ([6]; CByB6F1 (wild-type), mouse, female, pretomanid 30 mg/kg/day oral, Day 14, plasma) of 6900 ng/mL, an AUC(0-t) ([6]; CByB6F1 (wild-type), mouse, female, pretomanid 30 mg/kg/day oral, Day 14, plasma, read-out: Pretomanid AUC0-24) of 87500 ng·h/mL and a Cmax ([6]; CByB6F1 (wild-type), mouse, female, pretomanid 80 mg/kg/day oral, Day 14, plasma) of 16200 ng/mL. The AUC(0-t) ([6]; CByB6F1 (wild-type), mouse, female, pretomanid 80 mg/kg/day oral, Day 14, plasma, read-out: Pretomanid AUC0-24) was 186000 ng·h/mL, the “Exposure to pretomanid relative to exposure to the M50 metabolite” value ([6]; Day 14, all dose levels, both sexes) was “more than 10 times” and the AUC(0-t) ([6]; both sexes, CByB6F1 (wild-type), mouse, plasma, oral, high dose (40 male, 80 female mg/kg/day), read-out: Gender averaged mouse AUC0-24 of pretomanid) was 149000 ng·h/mL. The Cmax ([6]; wild-type CByB6F1, mouse, female, pretomanid 10 mg/kg/day oral, Day 14, plasma) was 2900 ng/mL, the Cmax ([6]; wild-type CByB6F1, mouse, male, pretomanid 5 mg/kg/day oral, Day 14, plasma) was 1800 ng/mL and the AUC(0-t) ([6]; wild-type CByB6F1, mouse, male, pretomanid 5 mg/kg/day oral, Day 14, plasma, read-out: Pretomanid AUC0-24) was 13700 ng·h/mL. The Cmax ([6]; wild-type CByB6F1, mouse, male, pretomanid 15 mg/kg/day oral, Day 14, plasma) was 4900 ng/mL, the AUC(0-t) ([6]; wild-type CByB6F1, mouse, male, pretomanid 15 mg/kg/day oral, Day 14, plasma, read-out: Pretomanid AUC0-24) was 50800 ng·h/mL and the Cmax ([6]; wild-type CByB6F1, mouse, male, pretomanid 40 mg/kg/day oral, Day 14, plasma) was 10400 ng/mL. The AUC(0-t) ([6]; wild-type CByB6F1, mouse, male, pretomanid 40 mg/kg/day oral, Day 14, plasma, read-out: Pretomanid AUC0-24) was 112000 ng·h/mL.
